Reference: ChEMBL document CHEMBL5316329, “Structure-Based Optimization of 2,4,5-Trisubstituted Pyrimidines as Potent HIV-1 Non-Nucleoside Reverse Transcriptase Inhibitors: Exploiting the Tolerant Regions of the Non-Nucleoside Reverse Transcriptase Inhibitors' Binding Pocket” (J Med Chem, 2023)

System: Human immunodeficiency virus 1
Assay: Antiviral activity against wild-type HIV-1 IIIB infected in human MT4 cells assessed as virus-induced cytopathicity treated for 5 days by MTT assay
Assay type: functional, organism-based
Conditions: Human immunodeficiency virus 1, IIIB, MT4, 120 h
Work on `Cc1cc(/C=C/C#N)cc(C)c1Oc1nc(NC2CCN(Cc3ccc(S(C)(=O)=O)cc3)CC2)ncc1-c1ccc(O)cc1` yielded an EC50 of 5.67 nM.
Work on `Cc1cc(/C=C/C#N)cc(C)c1Oc1nc(NC2CCN(Cc3ccc(S(C)(=O)=O)cc3)CC2)ncc1-c1cccc(O)c1` yielded an EC50 of 5.76 nM.
`Cc1cc(/C=C/C#N)cc(C)c1Oc1nc(NC2CCN(Cc3ccc(S(N)(=O)=O)cc3)CC2)ncc1-c1ccc(F)cc1` showed an EC50 of 4.98 nM.
`Cc1cc(/C=C/C#N)cc(C)c1Oc1nc(NC2CCN(Cc3ccc(S(C)(=O)=O)cc3)CC2)ncc1-c1cccc(N)c1` showed an EC50 of 6.05 nM.
`CC(=O)c1ccc(-c2cnc(NC3CCN(Cc4ccc(S(C)(=O)=O)cc4)CC3)nc2Oc2c(C)cc(/C=C/C#N)cc2C)cc1` gave an EC50 of 5.48 nM.
Compound `Cc1cc(/C=C/C#N)cc(C)c1Oc1nc(NC2CCN(Cc3ccc(S(C)(=O)=O)cc3)CC2)ncc1-c1ccccc1F` has an EC50 of 6.81 nM.
`CC(=O)c1ccc(-c2cnc(NC3CCN(Cc4ccc(C(N)=O)cc4)CC3)nc2Oc2c(C)cc(/C=C/C#N)cc2C)cc1` showed an EC50 of 5.16 nM.

System: Human immunodeficiency virus 1
Assay: Antiviral activity against NNRTI-resistant HIV-1 RES056 infected in human MT4 cells assessed as virus-induced cytopathicity treated for 5 days by MTT assay
Assay type: functional, organism-based
Conditions: Human immunodeficiency virus 1, RES056, MT4, 120 h
Compound `Cc1cc(/C=C/C#N)cc(C)c1Oc1nc(NC2CCN(Cc3ccc(S(C)(=O)=O)cc3)CC2)ncc1-c1ccc(O)cc1` has an EC50 of 50.9 nM.
Compound `Cc1cc(/C=C/C#N)cc(C)c1Oc1nc(NC2CCN(Cc3ccc(S(C)(=O)=O)cc3)CC2)ncc1-c1cccc(O)c1` has an EC50 of 68 nM.
`Cc1cc(/C=C/C#N)cc(C)c1Oc1nc(NC2CCN(Cc3ccc(S(N)(=O)=O)cc3)CC2)ncc1-c1ccc(F)cc1` gave an EC50 of 67.8 nM.
Work on `Cc1cc(/C=C/C#N)cc(C)c1Oc1nc(NC2CCN(Cc3ccc(S(C)(=O)=O)cc3)CC2)ncc1-c1cccc(N)c1` yielded an EC50 of 52.8 nM.
With `CC(=O)c1ccc(-c2cnc(NC3CCN(Cc4ccc(S(C)(=O)=O)cc4)CC3)nc2Oc2c(C)cc(/C=C/C#N)cc2C)cc1` the EC50 was 93.4 nM.
For `Cc1cc(/C=C/C#N)cc(C)c1Oc1nc(NC2CCN(Cc3ccc(S(C)(=O)=O)cc3)CC2)ncc1-c1ccccc1F`, the EC50 was 183 nM.
For `CC(=O)c1ccc(-c2cnc(NC3CCN(Cc4ccc(C(N)=O)cc4)CC3)nc2Oc2c(C)cc(/C=C/C#N)cc2C)cc1`, the EC50 was 55.5 nM.

System: not listed separately
Assay: Cytotoxicity against human MT4 cells assessed as reduction in cell viability treated for 5 days by MTT assay
Assay type: toxicity, cell-based
Conditions: time 5 day
Work on `Cc1cc(/C=C/C#N)cc(C)c1Oc1nc(NC2CCN(Cc3ccc(S(C)(=O)=O)cc3)CC2)ncc1-c1ccc(O)cc1` yielded a CC50 at 120 h of 5410 nM.
With `Cc1cc(/C=C/C#N)cc(C)c1Oc1nc(NC2CCN(Cc3ccc(S(C)(=O)=O)cc3)CC2)ncc1-c1cccc(O)c1` the CC50 at 120 h was 4350 nM.
Compound `Cc1cc(/C=C/C#N)cc(C)c1Oc1nc(NC2CCN(Cc3ccc(S(N)(=O)=O)cc3)CC2)ncc1-c1ccc(F)cc1` has a CC50 at 120 h of 9630 nM.
`Cc1cc(/C=C/C#N)cc(C)c1Oc1nc(NC2CCN(Cc3ccc(S(C)(=O)=O)cc3)CC2)ncc1-c1cccc(N)c1` gave a CC50 at 120 h of 4120 nM.
In the case of `CC(=O)c1ccc(-c2cnc(NC3CCN(Cc4ccc(S(C)(=O)=O)cc4)CC3)nc2Oc2c(C)cc(/C=C/C#N)cc2C)cc1`, the CC50 at 120 h is reported as 8460 nM.
`Cc1cc(/C=C/C#N)cc(C)c1Oc1nc(NC2CCN(Cc3ccc(S(C)(=O)=O)cc3)CC2)ncc1-c1ccccc1F` showed a CC50 at 120 h of 11600 nM.
Work on `CC(=O)c1ccc(-c2cnc(NC3CCN(Cc4ccc(C(N)=O)cc4)CC3)nc2Oc2c(C)cc(/C=C/C#N)cc2C)cc1` yielded a CC50 at 120 h of 11100 nM.

System: not listed separately
Assay: Selectivity index, ratio of CC50 for human MT4 cells to EC50 for NNRTI-resistant HIV-1 RES056 infected in human MT4 cells
Assay type: toxicity, cell-based
Conditions: read-out: Selectivity Index
In the case of `Cc1cc(/C=C/C#N)cc(C)c1Oc1nc(NC2CCN(Cc3ccc(S(C)(=O)=O)cc3)CC2)ncc1-c1ccc(O)cc1`, the selectivity ratio is reported as 106.
`Cc1cc(/C=C/C#N)cc(C)c1Oc1nc(NC2CCN(Cc3ccc(S(C)(=O)=O)cc3)CC2)ncc1-c1cccc(O)c1` showed a selectivity ratio of 64.
Work on `Cc1cc(/C=C/C#N)cc(C)c1Oc1nc(NC2CCN(Cc3ccc(S(N)(=O)=O)cc3)CC2)ncc1-c1ccc(F)cc1` yielded a selectivity ratio of 142.
Work on `Cc1cc(/C=C/C#N)cc(C)c1Oc1nc(NC2CCN(Cc3ccc(S(C)(=O)=O)cc3)CC2)ncc1-c1cccc(N)c1` yielded a selectivity ratio of 78.
Work on `CC(=O)c1ccc(-c2cnc(NC3CCN(Cc4ccc(S(C)(=O)=O)cc4)CC3)nc2Oc2c(C)cc(/C=C/C#N)cc2C)cc1` yielded a selectivity ratio of 91.
`Cc1cc(/C=C/C#N)cc(C)c1Oc1nc(NC2CCN(Cc3ccc(S(C)(=O)=O)cc3)CC2)ncc1-c1ccccc1F` gave a selectivity ratio of 63.
For `CC(=O)c1ccc(-c2cnc(NC3CCN(Cc4ccc(C(N)=O)cc4)CC3)nc2Oc2c(C)cc(/C=C/C#N)cc2C)cc1`, the selectivity ratio was 201.

Target: Human immunodeficiency virus type 1 reverse transcriptase (Human immunodeficiency virus 1, UniProt Q72547)
Assay: Inhibition of wild-type HIV-1 reverse transcriptase assessed as inhibition of biotin-dUTP incorporation
Conditions: not given
Compound `Cc1cc(/C=C/C#N)cc(C)c1Oc1nc(NC2CCN(Cc3ccc(S(C)(=O)=O)cc3)CC2)ncc1-c1ccc(O)cc1` has an IC50 of 97 nM.
For `Cc1cc(/C=C/C#N)cc(C)c1Oc1nc(NC2CCN(Cc3ccc(S(C)(=O)=O)cc3)CC2)ncc1-c1cccc(O)c1`, the IC50 was 164 nM.
`Cc1cc(/C=C/C#N)cc(C)c1Oc1nc(NC2CCN(Cc3ccc(S(N)(=O)=O)cc3)CC2)ncc1-c1ccc(F)cc1` gave an IC50 of 137 nM.
`Cc1cc(/C=C/C#N)cc(C)c1Oc1nc(NC2CCN(Cc3ccc(S(C)(=O)=O)cc3)CC2)ncc1-c1cccc(N)c1` showed an IC50 of 136 nM.
For `CC(=O)c1ccc(-c2cnc(NC3CCN(Cc4ccc(S(C)(=O)=O)cc4)CC3)nc2Oc2c(C)cc(/C=C/C#N)cc2C)cc1`, the IC50 was 199 nM.
`Cc1cc(/C=C/C#N)cc(C)c1Oc1nc(NC2CCN(Cc3ccc(S(C)(=O)=O)cc3)CC2)ncc1-c1ccccc1F` showed an IC50 of 161 nM.
`CC(=O)c1ccc(-c2cnc(NC3CCN(Cc4ccc(C(N)=O)cc4)CC3)nc2Oc2c(C)cc(/C=C/C#N)cc2C)cc1` showed an IC50 of 175 nM.

System: not listed separately
Assay: Selectivity index, ratio of CC50 for human MT4 cells to EC50 for wild-type HIV-1 IIIB infected in human MT4 cells
Assay type: toxicity, cell-based
Conditions: read-out: Selectivity Index
`Cc1cc(/C=C/C#N)cc(C)c1Oc1nc(NC2CCN(Cc3ccc(S(C)(=O)=O)cc3)CC2)ncc1-c1ccc(O)cc1` showed a selectivity ratio of 956.
With `Cc1cc(/C=C/C#N)cc(C)c1Oc1nc(NC2CCN(Cc3ccc(S(C)(=O)=O)cc3)CC2)ncc1-c1cccc(O)c1` the selectivity ratio was 756.
With `Cc1cc(/C=C/C#N)cc(C)c1Oc1nc(NC2CCN(Cc3ccc(S(N)(=O)=O)cc3)CC2)ncc1-c1ccc(F)cc1` the selectivity ratio was 1930.
Work on `Cc1cc(/C=C/C#N)cc(C)c1Oc1nc(NC2CCN(Cc3ccc(S(C)(=O)=O)cc3)CC2)ncc1-c1cccc(N)c1` yielded a selectivity ratio of 682.
`CC(=O)c1ccc(-c2cnc(NC3CCN(Cc4ccc(S(C)(=O)=O)cc4)CC3)nc2Oc2c(C)cc(/C=C/C#N)cc2C)cc1` showed a selectivity ratio of 1540.
Compound `Cc1cc(/C=C/C#N)cc(C)c1Oc1nc(NC2CCN(Cc3ccc(S(C)(=O)=O)cc3)CC2)ncc1-c1ccccc1F` has a selectivity ratio of 1710.
With `CC(=O)c1ccc(-c2cnc(NC3CCN(Cc4ccc(C(N)=O)cc4)CC3)nc2Oc2c(C)cc(/C=C/C#N)cc2C)cc1` the selectivity ratio was 2160.
